US6407237B1, “Crystal forms of 9-substituted hypoxanthine derivatives” (NeoTherapeutics, Inc., priority 2000, dated 2002)
“Also recorded” adds a separate entry of the source. One block for each compound: values may come before it.

Legend:
[1] = type: physicochemical
Description: The occurrence of polymorphic forms can be examined by various physico-chemical investigation techniques. The solubility measured under defined conditions can provide information regarding the occurrence of different crystal structures. However, the preferred technique for the investigation of the polymorphism of N-4-carboxyphenyl-3-(6-oxohydropurin-9-yl) propanamide monopotassium salt is the analysis of the X-ray diffraction powder diagrams, which allows the distinct crystal structures to be clearly distinguished by their characteristic powder patterns. The powder pattern, position, intensity and sharpness of the bands are dependent upon the crystal structure and the fine arrangement of the atoms in the crystal lattice, which in turn are both influenced by the content of crystal water. For this study, material from different batches of N-4-carboxyphenyl-3-(6-oxohydropurin-9-yl) propanamide monopotassium salt was used, either in the original or in a dry or wet state (Table 1).
In aqueous solutions prepared with material which was synthesized by the route designated “direct crystallization” a fine microcrystalline precipitate of the N-4-carboxyphenyl-3-(6-oxohydropurin-9-yl) propanamide free acid was formed after 2-3 min. Although the assay of K is 1.0 equivalent and although direct crystallized K-salt is isolated at equal or slightly higher pH (H 8.7) than K-salt synthesized from N-4-carboxyphenyl-3-(6-oxohydropurin-9-yl) propanamide free acid (pH 8.5), only the latter is completely soluble in water. […] The free acid precipitates and generates the di-K salt until its concentration is high enough to keep the precipitation and dissolution of the free acid at equilibrium. The solubility of N-4-carboxyphenyl-3-(6-oxohydropurin-9-yl) propanamide Type II (lot Am 960/a) in aqueous solution was measured as a function of temperature (FIG. 2). In the solubility curve a plateau is reached at 70° C. (17% w/w).

[2] = Hydration and dehydration (interconversion) studies of crystal structures, checked by X-ray powder pattern; type: physicochemical; conditions: for crystal structure after incubation in humid chamber (H2O vapor) at 25° C. / crystal structure after incubation in humid chamber (H2O vapor) at 70° C.: 48 h
Method: X-ray powder patterns were measured with a β-Generator Philips PW 1120/90 equipped with a CuKα Guinier-de Wolff Camera No. 11 (Enraf-Nonius).
Starting from different crystal structures, hydration and dehydration studies were performed (FIG. 1, Table 2). The crystal structure designated Type I (lot NTA-107-B) is obtained by equilibration of Type II (lot NTA-107-A) with water vapor in a humid chamber, whereas Type III was generated by dehydration of Type I in a vacuum drying oven at elevated temperature (Tables 1 and 2). The X-ray powder patterns of the Type I and II crystal structures are not sensitive to small changes in the water content and appear uniform from batch to batch.
The well-resolved powder diagrams of these two forms indicate well ordered crystal lattice structures (FIG. 3). […] The manufacturing process leads to a water-soluble (5% w/v) crystalline product of the monopotassium salt of N-4-carboxyphenyl-3-(6-oxohydropurin-9-yl) propanamide monohydrate Type I (active pharmaceutical ingredient). N-4-carboxyphenyl-3-(6-oxohydropurin-9-yl) propanamide monopotassium salt exists, as known so far, in three different crystal structures (Types I-III) depending upon the water content.

[3] = Hygroscopicity of the crystal structure; type: physicochemical

solubility in aqueous solution as a function of temperature, plateau of solubility curve [1]: 17 % w/w
solubility in water [1]: about 10 % (w/v)
crystal structure after incubation in humid chamber (H2O vapor) at 25° C. ([2]; monopotassium salt): Type II
SMILES: O=C(CCn1cnc2c(=O)[nH]cnc21)Nc1ccc(C(=O)[O-])cc1.[K+] [Type II, N-4-carboxyphenyl-3-(6-oxohydropurin-9-yl) propanamide monopotassium salt]
crystal structure after incubation in humid chamber (H2O vapor) at 70° C. ([2]; monopotassium salt): interconversion of Type II into Type I crystal structure

crystal structure after incubation in humid chamber (H2O vapor) at 25° C. ([2]; monopotassium salt): turns completely into Type I
SMILES: O=C(CCn1cnc2c(=O)[nH]cnc21)Nc1ccc(C(=O)[O-])cc1.[K+] [Type III, N-4-carboxyphenyl-3-(6-oxohydropurin-9-yl) propanamide monopotassium salt]

hygroscopicity [3]: only slightly hygroscopic
crystal structure after strong drying in vacuum oven ([2]; 140° C., 5 mbar, monopotassium salt monohydrate): Type III was obtained
SMILES: O.O=C(CCn1cnc2c(=O)[nH]cnc21)Nc1ccc(C(=O)[O-])cc1.[K+] [Type I, N-4-carboxyphenyl-3-(6-oxohydropurin-9-yl) propanamide monopotassium salt monohydrate]
crystal structure after incubation in humid chamber (H2O vapor) at 25° C. ([2]; monopotassium salt monohydrate): stable; also recorded: remains unchanged; also recorded: Type I
crystal structure after incubation in humid chamber (H2O vapor) at 70° C. ([2]; monopotassium salt monohydrate): stable; also recorded: remains unchanged; also recorded: Type I

solubility of the free acid in water [1]: extreme low solubility
SMILES: O=C(CCn1cnc2c(=O)[nH]cnc21)Nc1ccc(C(=O)O)cc1 [free acid, N-4-carboxyphenyl-3-(6-oxohydropurin-9-yl) propanamide]
